Measurements as given in patent US20070244076A1, “Site and Rate Selective Prodrug Formulations of D609 with Antioxidant and Anticancer Activity” (priority 2003, published 2007).

What was measured:
U937 cells = assay: U937 apoptosis, sub-G0/1 cells by flow cytometry; assay type: cell-based, Human; settings: 177 μM, 24 h
Method: Apoptosis Assays: U937 cells (5×10^5/ml) were cultured with vehicle (0.5% DMSO) or 177 μM D609 or prodrug 2. After 24 h incubation, the cells were harvested, washed and then fixed in 70% ethanol at 4° C. for 24 h. They were stained with a PI staining solution (PBS containing PI 50 μg/ml; RNase A 100 U/ml; and 0.1 mM EDTA) for 2 h at room temperature before flow cytometric analysis (10,000 events/sample). The percentage of apoptotic cells was determined by quantification of the sub-G0/1 population using a FACS Caliber (Becton Dickinson, San Jose, Calif.).

[1] = rat, plasma
Method: At various times of the incubation, the hydrolysis of prodrug 2 was monitored by HPLC analysis, and the release of D609 was determined by measuring the colorimetric reaction of D609 with DTNB (3 mM). The data are presented as mean±SE of three independent assays.
After incubation at 37° C., aliquots (100 μl) of the plasma were removed at various times and immediately mixed with an equal volume of DTNB in acetonitrile (3 mM DTNB). Acetonitrile was used to quickly inactivate plasma esterases and to precipitate plasma proteins. After removal of the precipitated plasma proteins by centrifugation, the concentrations of the D609 prodrug and D609 in the clear plasma supernatants were determined by HPLC and DTNB assays, respectively, as described above.

BALB/c mice = assay: Protection of mice from IR-induced lethality; assay type: in vivo; settings: 50 mg/kg iv 10 min prior to 6.5 or 8.5 Gy total body IR; 30-day observation
Method: BALB/c mice were exposed to 6.5 or 8.5 Gy total body IR 10 minutes after they received a single dose (50 mg/kg) of iv injection of D609 or vehicle (saline) through the tail vein. The death of these mice was recorded during a 30-day observation period after IR.
Moreover, when D609 (50 mg/kg, iv) was administered to mice 10 min prior to total body

various tumor cells = assay: IR-induced apoptosis of tumor cells; assay type: cell-based
[2] = target: phospholipase C (Type XI from B. cereus) (Bacillus cereus, UniProt P09598); assay type: biochemical; settings: 2 hrs at 37° C., pNPP 40 mM
Sequence of phospholipase C (Type XI from B. cereus) (P09598 39-283 limits assumed): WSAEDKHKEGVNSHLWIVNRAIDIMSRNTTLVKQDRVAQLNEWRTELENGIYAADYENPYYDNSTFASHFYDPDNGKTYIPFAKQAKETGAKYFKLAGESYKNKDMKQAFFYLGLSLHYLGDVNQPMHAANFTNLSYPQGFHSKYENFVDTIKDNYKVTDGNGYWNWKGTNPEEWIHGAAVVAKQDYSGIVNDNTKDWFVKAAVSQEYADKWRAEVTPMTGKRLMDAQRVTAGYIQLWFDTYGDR
Method: (§1) In this study, p-nitrophenyl-phosphorylcholine (pNPP, 40 mM) was incubated with 2 U/ml phospholipase C (Type XI from B. cereus) in the presence or absence of various concentrations of inhibitors for 2 hrs at 37° C. The amount of the cleaved substrate pNPP was quantified by determination of the optical density at 410 nm using an ELISA reader. The results are expressed as percent of vehicle control and presented as means±SEM (n=3) (FIG. 9A). NBD-C6-ceramide and PC were incubated with U937 cell lysates containing 50 μg protein in the presence or absence of various concentrations of inhibitors for 30 min at 30° C. The formation of NBD-C6-sphingomyelin as analyzed by TLC and quantified by determination of the fluorescent intensity of NBD-C6-sphingomyelin using a phosphorimager. The results are expressed as percent of vehicle control (FIG. 9B). U937 cells were incubated with different concentrations of inhibitors for 48 hours.

[3] = Cyclic voltammetry, reducing power (E1/2) at physiological pH; assay type: physicochemical; settings: 2 mM in PBS (pH 7.4)
Method: D609 was dissolved in PBS (pH 7.4) at 2 mM concentration, and E1/2 was measured using a cyclic voltammetry apparatus (Model CV-2, from BAS, West Lafayette, 1N).

[4] = test system: sphingomyelin synthase (SMS); assay: SMS activity in U937 cell lysates with inhibitor added (cell lysate-based in vitro assay); assay type: biochemical, Human; settings: 30 min at 30° C.
Method: as §1

A20 lymphoma = settings: 50 mg/kg i.v., alone or with 6.0 Gy irradiation
Method: A20 lymphoma was induced in normal BALB/c male mice by the tail vein injection of 5×10^5 cultured A20 cells. Two days later, the mice were assigned to groups of 10 mice each and received i.v. 1) saline, 2) 50 mg/kg D609, 3) saline plus 6.0 Gy irradiation or 4) D609 plus irradiation. Total body irradiation was given 10 min after D609 injection. Survival of each mouse was then followed by daily monitoring and weighing (5×/week).

[5] = test system: leukemia cells (U937, Jurkat, SupT13 and A20), solid tumor cells (HT1080); assay: MTT cell viability, leukemia and solid tumor cell panel; assay type: cell-based; settings: 48 hours
Text: The results, shown in FIG. 7A and FIG. 7B, are expressed as a percent of vehicle control and presented as means±SEM (n=3).

[6] = test system: ceramide and DAG levels in U937 cells; assay: Ceramide and DAG levels in U937 cells by DAG kinase assay; assay type: cell-based, Human; settings: 2 hrs
Method: To validate if inhibition of SMS may mediate D609-induced tumor cell death, the cellular level of SMS activity in U937 cells treated with vehicle or D609 were studied. […] NBD-C6-ceramide and PC were incubated with the cell lysates containing 50 μg proteins for 30 min at 30° C. The formation of NBD-C6-sphingomyelin was analyzed by TLC and quantified by determination of the fluorescent intensity of NBD-C6-sphingomyelin using a phosphoimager. The results, shown in FIGS. 10B-10D, are expressed as percent of the control cultures with vehicle and presented as means±SEM (n=3). […] The levels of ceramide (FIG. 10B) and DAG (FIG. 10C) were analyzed by the DAG kinase assay, normalized to the levels of cellular phospholipid and expressed as pmole/nmole phophate (pi) or the ratio of ceramide and DAG (FIG. 10D). The results represent means±SEM (n=3).

lymphocytes = assay: IR-induced oxidative events in lymphocytes; assay type: cell-based; settings: pre-incubation of lymphocytes
[7] = test system: Mouse splenic lymphocytes; assay: IFNγ production of ConA-stimulated lymphocytes, ELISA; assay type: cell-based
Method: Studies were conducted to determine whether D609 enhances mouse splenic lymphocyte mitogenic responses and IFNγ production. Mouse splenic lymphocytes at 2.5×10^6/ml were stimulated with LPS or ConA in the presence or absence of D609. The cell proliferation was measure by 3H-thymidine incorporation after the cells were cultured with LPS (FIG. 8A) or with ConA (FIG. 8B). […] In addition, the supernatants of ConA-stimulated lymphocyte cultures were harvested at various times and measured for IFNγ production by ELISA (FIG. 8C).

Row | SMILES | apoptosis (sub-G0/1 cells) (U937 cells) | T1/2 [1] | protection from IR-induced lethality (BALB/c mice) | protection of tumor cells from IR-induced apoptosis (various tumor cells) | inhibition of PC-PLC activity [2] | E1/2 [3] | inhibition of SMS activity [4] | therapeutic response (A20 lymphoma) | cell viability [5] | level of DAG [6] | level of ceramide [6] | ratio between ceramide and DAG [6] | IR-induced events (ROS production, decrease in GSH, oxidative damage to proteins and lipids, NF-κB activation) (lymphocytes) | production of interferon-γ (IFNγ) [7]
1 | CCCC(=O)OCSC(=S)OC1CC2CC1C1CCCC21 (stereo not drawn) [Prodrug 2, S-methyleneoxybutyryl D609] | significantly greater reduction in cell viability and increase in the sub-G0/1 cells than D609-treated cells | 7.559 s | – | – | – | – | – | – | – | – | – | – | – | –
2 | S=C([S-])OC1CC2CC1C1CCCC21.[K+] (stereo not drawn) [Prodrug D609, Tricyclodecan-9-yl-xanthogenate] | capable of inducing apoptosis | – | protected the mice from IR-induced lethality | failed to protect them from IR-induced apoptosis | dose-dependently inhibited | 350 mV | inhibited the SMS activity in a dose-dependent manner | no significant therapeutic response | dose-dependent reduction in cell viability | decrease in that of DAG | increase in the level of ceramide | dramatically elevated | significant diminution | significantly augmented
